Test results published in US20190374628A1, “MUTATED FRAGMENTS OF THE RAS PROTEIN” (Targovax ASA, priority 2015, published 2019).
“And” between values parts separate entries of the source, which are not always exact repeats. Identical values can stand only once.

How the values were obtained:
T-cells = test: 3-days T-cell proliferation assay (3H-thymidine) after three rounds of in vitro stimulation of PBMC bulk cultures with RAS peptides; type: cell-based, human; settings: bulk cultures stimulated three rounds with TG02 + 13R, 10 μM peptide
Experimental: In this example, Buffy coats were collected from 4 normal human donors (Buffy 1, Buffy 2, Buffy 3, and Buffy 4) and were cultured in vitro. The in vitro PBMCs were stimulated with a single RAS peptide or a mixture of RAS peptides, and T-cell proliferation assays performed.
The procedure must be performed at room temperature until point 5. All handling of cells in the open is done in a vertical laminar flow hood. • 1. Rapidly transfer the vials, each vial with frozen PBMC from a buffy coat (Buffy 1, Buffy 2, Buffy 3, and Buffy 4), to a water bath at 37° C. • 2. Shake the vials manually at regular intervals (approx. 2-3 min.) and remove them from the water bath while some ice is still present. • 3. When all the ice is melted, transfer 1 ml of CellGro DC medium drop-wise to the cell suspension. • 4. Transfer the cell suspension to a 50 ml tube containing 20 ml of CellGro DC medium. • 5. Centrifuge cells at 500G for 5 min at room temperature. • 6. Resuspend the cells in 5 ml CellGro DC medium. • 7. Count the number of viable cells using a Burker chamber or KOVA Galsstic slides and adjust the cell concentration to 2×10^6 cells/ml in complete CellGro DC medium (see recipe). Total cell numbers: Buffy 1-45×10^6, Buffy 2-27.5×10^6, Buffy 3-40.5×10^6, and Buffy 4-40.5×10^6 cells.
b. Bulk cultures for increasing number of RAS peptide reactive T-cells • 1. […]

any RAS mutation = settings: cited from earlier work

Substance | Counts per minute (CPM), APC + T-cell + 13 C (T-cells; Donor #3, single replicates) | Mean counts per minute (CPM), APC + T-cell + 13 C (T-cells; Mean Donor #3) [CPM] | Outcome of treatment in patients having any RAS mutation (any RAS mutation)
KLVVVGAGCVGKSALTI (listed as Homo sapiens) [13C, RAS peptide of the peptide mixture having a G13C mutation] | 27813 CPM and 32522 CPM and 28869 CPM | 29735 | 
paitumumab-FOLFOX4: panitumumab (printed paitumumab) in combination with FOLFOX4 chemotherapy |  |  | may even be harmed
